From paper PMC4467398, “Preclinical antitumor activity of ST7612AA1: a new oral thiol-based histone deacetylase (HDAC) inhibitor” (Oncotarget, 2014)
Several values for one entry are separate records, joined by “and”; a condition that tells them apart may be missing. Equal entries are not always repeated. Where two headings read alike, the source gives them in different places.

Columns and labels:
[1] = system: acetylation of histone H4 in NCI-H460 NSCLC cells; experiment: Western blot with densitometry, histone H4 acetylation; type: cell-based, human; conditions: 5 µM; NCI-H460; vehicle 0,0274
Method: (§1) For assessing the in vitro effect of ST7612AA1 on acetylation of α-tubulin and histones, NSCLC cells were treated with the test compound at various concentrations (dose-response curve). SAHA 5 μM was used as reference inhibitor. Protein extraction, separation and immunoblotting were performed as previously described. Immunoreactive bands were finally subjected to densitometry analysis by a phosphoimaging system (STORM, Molecular Dynamics), and then the IC50 values were calculated by the “ALLFIT” computer program. The antibodies used are listed in Supplementary Table 2.

[2] = system: acetylation of alpha-tubulin in NCI-H460 NSCLC cells; experiment: Western blot with densitometry, tubulin acetylation; type: cell-based, human; conditions: 5 µM; NCI-H460; vehicle 0,341
Method: as §1

HDAC11 = system: HDAC11; parameters: method as in PMID 25233084; conditions: mean of IC50 on HDAC1, 10 and 11; cited from earlier work
HDAC2 = system: HDAC2; parameters: method as in PMID 25233084; conditions: cited from earlier work
HDAC1 = system: HDAC1; parameters: method as in PMID 25233084; conditions: cited from earlier work
HDAC3 = system: HDAC3; parameters: method as in PMID 25233084; conditions: mean of IC50 on HDAC3 and 6; cited from earlier work
HDAC6 = system: HDAC6; parameters: method as in PMID 25233084; conditions: cited from earlier work
HDAC8 = system: HDAC8; parameters: method as in PMID 25233084; conditions: cited from earlier work
[3] = parameters: method as in PMID 25233084; conditions: mean of IC50 on HDAC1, 10 and 11; cited from earlier work
[4] = PK sampling and analysis after a single oral dose of ST7612AA1 (plasma, LC-MS/MS); type: in vivo, CD1 mice; conditions: ST7464AA1 in plasma, single oral dose of 120 mg/kg of ST7612AA1
Method: CD1 nude mice were used. Male mice were treated with a single dose of ST7612AA1 at 120 mg/10 mL/kg p.o., using 5% Solutol HS 15 in water for injection as vehicle. Blood samples were collected at 0.25, 0.5, 1, 2, 4 and 6 h post treatment from 5 animals per time point. Levels of ST7612AA1 and ST7464AA1 were determined in plasma by quantitative LC-MS/MS having a limit of quantification of 25 ng/mL. The PK parameters Cmax (maximum plasma concentration), Tmax (time of maximum plasma concentration), Clast (last quantifiable concentration), Tlast (time of last quantifiable plasma concentration), AUClast (area under the concentration vs time curve from 0 to Tlast), AUCINF (area under the concentration vs time curve from 0 to infinity), T1/2 (terminal half-life), CL/F (apparent systemic clearance) and Vz/F (apparent terminal volume of distribution) were derived from the analyte plasma concentration vs time data according to a model independent approach for sparse data sampling by using Phoenix WinNonlin® ver. 6.3 software (Pharsight, Cetara).

[5] = male, CD1 nude, mouse, mean ± SEM

Tlast [4] | AUC(0-inf) ([4]; male, CD1 nude, mouse) | CL/F ([4]; male, CD1 nude, mouse) | Tmax ([4]; male, CD1 nude, mouse) | half-life ([4]; male, CD1 nude, mouse) | AUC(0-t) [4, 5] | Cmax [4, 5] | concentration at 6 h ([4]; male, CD1 nude, mouse, read-out: Clast) | Vd/F ([4]; male, CD1 nude, mouse, read-out: Vz/F) | SMILES | Acetyl H4/H4 [1] | Acetyl tub./tubulin [2] | IC50 (HDAC11) | IC50 (HDAC2) | IC50 (HDAC1; HDAC1) | IC50 (HDAC1; mean of IC50 on HDAC1, 10 and 11) | IC50 (HDAC3) | IC50 (HDAC6; HDAC6) | IC50 (HDAC6; mean of IC50 on HDAC3 and 6) | IC50 (HDAC8) | IC50 [3]
– | – | – | – | – | – | – | – | – | O=C(CCCCCCC(=O)Nc1ccccc1)NO [SAHA, suberoylanilide hydroxamic acid, reference compound] | 0,1537 | 2,617 | – | – | – | – | – | – | – | – | –
6.0 h | 5510 ng·h/mL | 363 mL/min/kg | 0.5 h | 3.8 h | 3750 ± 299 ng·h/mL | 1580 ± 478 ng/mL | 303 ng/mL | 119 L/kg | O=C1CC[C@H](C(=O)N[C@@H](CCCCCS)C(=O)Nc2ccccc2)N1 [ST7464AA1] | – | – | 13 nM | 77.7 nM and 78 nM | 12.7 nM | 13 nM | 4 nM | 3.18 nM | 4 nM | 281 nM | 13 nM
